As a reminder, the Kd is the concentration at which binding is half-saturated. The low end stands for tighter binding, the high end for weaker binding.

One assay addresses T1, LBP-2 (Caenorhabditis elegans, UniProt Q20224).
T1 sequence (Q20224 19-161): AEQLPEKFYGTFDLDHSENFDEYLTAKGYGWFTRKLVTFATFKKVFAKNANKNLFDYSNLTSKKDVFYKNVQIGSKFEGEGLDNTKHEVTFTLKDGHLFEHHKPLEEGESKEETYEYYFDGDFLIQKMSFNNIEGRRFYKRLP
Put plainly: mass spectrometry of fatty acids bound after incubation with C. elegans lipid extract. Conditions: competition within C. elegans lipid extract. It counts as binding.

The target in another assay is T2, LBP-3 (Caenorhabditis elegans, UniProt Q20222).
T2 sequence (Q20222 16-165): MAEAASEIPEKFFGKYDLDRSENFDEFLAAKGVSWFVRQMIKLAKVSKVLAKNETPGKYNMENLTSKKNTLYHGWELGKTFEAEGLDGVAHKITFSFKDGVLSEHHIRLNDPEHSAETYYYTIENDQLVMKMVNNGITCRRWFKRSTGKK
Put plainly: competitive fluorescence displacement of […],8-ANS. Conditions: one-site Fit Ki; competition with 1,8-ANS probe. It counts as binding.

With `CCCCC/C=C\C/C=C\C/C=C\CCCCCCC(=O)O` [DGLA, dihomo-γ-linolenic acid], the “% occupancy among bound PUFAs” value on LBP-2 was 1%. Moreover, the Kd on LBP-3 worked out at 11 µM.

Take `CC/C=C\C/C=C\C/C=C\C/C=C\C/C=C\CCCC(=O)O` [EPA, eicosapentaenoic acid]: on LBP-2, the “% occupancy among bound PUFAs” value was found to be 6%. The Kd at LBP-3 was determined as 4.76 µM.

Source of the values: PMC9203275, “Lysosome lipid signalling from the periphery to neurons regulates longevity” (Nature Cell Biology, 2022).
